Data taken from publication PMC11602622, “Evolution of queen pheromone receptor tuning in four honeybee species (Hymenoptera, Apidae, Apis)” (iScience, 2024).
Changes are numbered by the printed parent chain.

How the values were obtained:
AcerOR11 [1] = biological target: T1, AcerOR11 (Apis cerana, UniProt A0A3G2FPT9); experiment: transcuticular GCaMP6m calcium imaging of Drosophila antenna, dose-response; type: cell-based; conditions: agonist; airborne odorant, unit is dose loaded on filter paper, not a concentration; 1 s stimulus; solvent 2-propanol
T1 construct: full-length ORF, Drosophila codon-optimized synthetic gene (pUAST.attB, locus 51C); expressed in Drosophila at1 OSNs in place of DmelOR67d, with endogenous fly Orco and GCaMP6m; same length as the other OR11
T1 sequence (A0A3G2FPT9 1-394): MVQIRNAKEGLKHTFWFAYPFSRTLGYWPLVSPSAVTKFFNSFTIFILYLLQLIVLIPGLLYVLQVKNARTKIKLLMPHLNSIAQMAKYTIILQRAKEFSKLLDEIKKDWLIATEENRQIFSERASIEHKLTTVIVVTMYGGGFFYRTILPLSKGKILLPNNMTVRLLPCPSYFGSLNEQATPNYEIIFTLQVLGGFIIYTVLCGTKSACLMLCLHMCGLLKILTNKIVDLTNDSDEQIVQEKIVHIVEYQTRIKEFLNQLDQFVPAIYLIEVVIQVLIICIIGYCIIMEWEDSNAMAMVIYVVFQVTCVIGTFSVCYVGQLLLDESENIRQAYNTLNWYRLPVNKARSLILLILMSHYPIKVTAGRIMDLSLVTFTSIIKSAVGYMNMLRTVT

AdorOR11 = test system: T2, AdorOR11; experiment: as above; type: cell-based, Apis dorsata; conditions: agonist; airborne odorant, unit is dose loaded on filter paper, not a concentration; 1 s stimulus; solvent 2-propanol
T2 construct: gene OR11; full-length ORF, Drosophila codon-optimized synthetic gene (pUAST.attB, locus 51C); expressed in Drosophila at1 OSNs in place of DmelOR67d, with endogenous fly Orco and GCaMP6m; same length as the other OR11

AmelOR11 = biological target: T3, AmelOR11 (Apis mellifera, UniProt A0A7M6UWX0); experiment: as above; type: cell-based; conditions: agonist; airborne odorant, unit is dose loaded on filter paper, not a concentration; 1 s stimulus; solvent 2-propanol
T3 construct: gene Or11; full-length ORF, Drosophila codon-optimized synthetic gene (pUAST.attB, locus 51C); expressed in Drosophila at1 OSNs in place of DmelOR67d, with endogenous fly Orco and GCaMP6m; same length as the other OR11
T3 sequence (A0A7M6UWX0 1-394): T1 sequence (A0A3G2FPT9 1-394) with V36F, I47T, L50F, Q52E, A69P, I112L, I228V, V229M, I239V, N345K

AcerOR11 [2] = biological target: T1, AcerOR11; experiment: transcuticular GCaMP6m calcium imaging of Drosophila antenna, single-dose screen; type: cell-based; conditions: agonist; 100 μg on filter paper; 1 s stimulus; solvent 2-propanol
AflorOR11 = test system: T4, AflorOR11; experiment: transcuticular GCaMP6m calcium imaging of Drosophila antenna, dose-response; type: cell-based, Apis florea; conditions: agonist; airborne odorant, unit is dose loaded on filter paper, not a concentration; 1 s stimulus; solvent 2-propanol
T4 construct: gene OR11; full-length ORF, Drosophila codon-optimized synthetic gene (pUAST.attB, locus 51C); expressed in Drosophila at1 OSNs in place of DmelOR67d, with endogenous fly Orco and GCaMP6m; same length as the other OR11

Structure (SMILES) | EC50 (AcerOR11 [1]) | EC50 (AdorOR11) | EC50 (AmelOR11) | calcium response (ΔF/F0) (AcerOR11 [2]) | EC50 (AflorOR11)
CCCC(=O)C(=O)O [2-oxovaleric acid] | 208.5 ± 39.57 µg | 139.3 ± 28.55 µg | 84.26 ± 15.52 µg | – | –
CC(=O)CCC=C(C)C [6-methyl-5-hepten-2-one] | – | – | – | AcerOR11 responded to a third secondary ligand: 6-methyl-5-hepten-2-one | –
CC(=O)CCCCC/C=C/C(=O)O [9-ODA, 9-oxo-(E)-2-decenoic acid] | 174.8 ± 26.05 µg | 173.4 ± 22.22 µg | 160.5 ± 28.46 µg | – | 175.8 ± 29.59 µg
CCC/C=C/C(=O)O [trans-2-hexenoic acid] | 105.8 ± 9.62 µg | 124.2 ± 9.58 µg | 239.2 ± 72.06 µg | – | –
